Experimental data from patent US20090111895A1, “ENHANCED DIALDEHYDE DISINFECTANT AND STERILIZATION FORMULATIONS” (Ethicon, Inc., priority 2007, published 2009).

Experiments:
Bacillus subtilis spores = test: Time kill assay; assay type: cell-based; settings: Table 6; 0.3% ortho-phthalaldehyde, 20° C.
Protocol: Test solutions were prepared by mixing acetate with ortho-phthalaldehyde (if applicable) and the solutions were adjusted to pH 7.2. The solutions were then challenged with 10^6 per ml of Bacillus subtilis spores at 20° C. (room temperature). At each predetermined exposure time, samples from each of the test solutions were tested/assayed for survivors.

[1] = system: Bacillus subtilis (ATCC 19659) spores; test: Bacillus subtilis sporicidal suspension test; assay type: cell-based; settings: 20° C.; for sporicidal activity (in words): Table 1 results; for sporicidal activity (in words) / enhancement of the sporicidal activity of ortho-phthalaldehyde (in words): 5 hours; for enhancement of the sporicidal activity of ortho-phthalaldehyde (in words): Tables 2-4, 0.3 wt. % ortho-phthalaldehyde
Protocol: The phrase “Bacillus subtilis sporicidal suspension test”, when used in the appended claims means a determination of the sporicidal activity of a dialdehyde calculated as a log reduction of Bacillus subtilis bacterial spores. The test is performed according to Example 1 by treatment of Bacillus subtilis bacterial spores with a formulation consisting of the dialdehyde to be tested in water. The log10 reduction/mL is calculated from log N0−log Ni where N0 represent the number of organisms (cfu/mL) at time zero; and Ni represent the number of surviving organism (cfu/mL) at designated exposure time.
Several ortho-phthalaldehyde based germicidal solutions were tested to determine their effectiveness in killing Bacillus subtilis (ATCC 19659) spores using the Bacillus subtilis sporicidal suspension test.
For preparation of the inoculating spore test suspension, a 1 ml aliquot of the spore harvest was serial diluted with sterile water to produce a spore suspension of approximately 1×10^7 cfu ml.
Test solutions of ortho-phthalaldehyde/acetate were prepared by mixing acetate with CIDEX® OPA (which is a 0.55% solution of ortho-phthalaldehyde in water around pH 7.3, commercially available from Advanced Sterilization Products, a Johnson & Johnson Company) and diluted to levels indicated in Table 1.
The 1 ml aliquots of spore suspensions were exposed to 9 ml of ortho-phthalaldehyde solution at 20° C. The pHs of the tested solutions were adjusted to 7.3-7.5.
The experiments were performed using the suspension test, which involved adding 1 ml of 10^7 spores to sterile test tubes containing 9 ml of the challenge solution. The resulting test sample spore concentration was 10^6 cfu /ml. The tubes containing the test suspension/spores were vortex briefly to allow for mixing of the solution/spores. At the end of each of the appropriate exposure time at 20° C., 1 ml aliquots of the solution/spores mixture were aseptically transferred to sterile filtration units containing 0.45μ membrane filters with 100 ml of neutralizer solution (1% w/v glycine solution). The solutions were filtered and the membrane filters were rinsed again with 100 ml of neutralizers solution. The membrane filters were then individually transferred onto the surface of commercially available sterile Tryptic Soy Agar plates. The plates were incubated at 37° C. for 48 hours. After incubation, the number of survivors were determined for each test sample/exposure time.
The log10 reduction/mL is calculated from log N0−log Ni where N0 represent the number of organism (cfu/mL) at time zero; and Ni represent the number of surviving organism (cfu/mL) at designated exposure time.
In addition to acetate, several mixtures of ortho-phthalaldehyde with different carboxylates such as chloroacetate and propionate were also tested using the protocol described above in Example 1.
Benzoate was evaluated for its ability to enhance the sporicidal activity of ortho-phthalaldehyde using the protocol described above in Example 1. The pHs of all solutions were adjusted to neutral, 7.3-7.5.
Spore suspension tests with five germicide solutions containing 2.4% glutaraldehyde with various amounts of acetate ranging from 0 to 7% were conducted at 20° C. for 4 hours with Bacillus using the protocol described above in Example 1. The pHs of the solutions were adjusted to 8.2-8.9, which is the typical pH range for glutaraldehyde disinfecting solutions.

spores of B. subtilis = settings: cited from earlier work

SMILES	sporicidal activity (in words) [1]	enhancement of the sporicidal activity of ortho-phthalaldehyde (in words) [1]	further results
CC(=O)[O-].[K+] [acetate, potassium acetate]	does not have significant sporicidal activity		enhancement of the sporicidal activity of ortho-phthalaldehyde (in words) (Bacillus subtilis spores): the sporicidal activity of ortho-phthalaldehyde is significantly enhanced; enhancement of the sporicidal activity of glutaraldehyde (in words) ([1]; Table 5, 2.4% glutaraldehyde, 4 hours): the sporicidal activity of glutaraldehyde is significantly enhanced
O=C(O)c1ccccc1 [benzoate]		enhances ortho-phthalaldehyde sporicidal efficacy when the benzoate concentration is above about 3%	
O=C(O)CCl [chloroacetate]		significantly enhance the sporicidal activity of ortho-phthalaldehyde	
O=Cc1ccccc1C=O [ortho-phthalaldehyde, reference compound]	does not have significant sporicidal activity		activity against spores of B. subtilis (in words) (spores of B. subtilis): relatively ineffective against spores of B. subtilis
CCC(=O)O [propionate]		significantly enhance the sporicidal activity of ortho-phthalaldehyde	
